According to publication PMC9101642 (Molecules, 2022):
Marks after values point to notes of the source that are not given here.

What was measured:
[1] = target: T1, ERα (Homo sapiens, UniProt P03372); experiment: Fluorescence polarization competition assay: antagonistic potency and relative binding affinity
T1 sequence (P03372 1-595): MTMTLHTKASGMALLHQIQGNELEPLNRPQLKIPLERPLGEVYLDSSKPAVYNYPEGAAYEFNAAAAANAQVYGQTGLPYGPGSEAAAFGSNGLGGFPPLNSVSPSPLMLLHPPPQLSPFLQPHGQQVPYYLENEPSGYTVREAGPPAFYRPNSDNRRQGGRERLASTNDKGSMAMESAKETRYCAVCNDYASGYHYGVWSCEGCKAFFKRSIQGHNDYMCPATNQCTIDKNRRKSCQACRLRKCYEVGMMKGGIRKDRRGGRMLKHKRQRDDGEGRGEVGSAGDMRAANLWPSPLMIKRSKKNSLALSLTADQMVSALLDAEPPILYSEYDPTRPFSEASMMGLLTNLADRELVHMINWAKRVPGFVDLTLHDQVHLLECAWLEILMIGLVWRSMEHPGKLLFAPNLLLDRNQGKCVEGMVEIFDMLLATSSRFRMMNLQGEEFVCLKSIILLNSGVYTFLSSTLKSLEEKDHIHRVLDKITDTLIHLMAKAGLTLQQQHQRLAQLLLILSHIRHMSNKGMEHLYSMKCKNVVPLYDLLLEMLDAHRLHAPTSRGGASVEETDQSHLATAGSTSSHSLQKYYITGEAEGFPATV

[2] = target: ERβ (Homo sapiens, UniProt Q92731); experiment: as above
ERβ, sequence (Q92731 whole entry): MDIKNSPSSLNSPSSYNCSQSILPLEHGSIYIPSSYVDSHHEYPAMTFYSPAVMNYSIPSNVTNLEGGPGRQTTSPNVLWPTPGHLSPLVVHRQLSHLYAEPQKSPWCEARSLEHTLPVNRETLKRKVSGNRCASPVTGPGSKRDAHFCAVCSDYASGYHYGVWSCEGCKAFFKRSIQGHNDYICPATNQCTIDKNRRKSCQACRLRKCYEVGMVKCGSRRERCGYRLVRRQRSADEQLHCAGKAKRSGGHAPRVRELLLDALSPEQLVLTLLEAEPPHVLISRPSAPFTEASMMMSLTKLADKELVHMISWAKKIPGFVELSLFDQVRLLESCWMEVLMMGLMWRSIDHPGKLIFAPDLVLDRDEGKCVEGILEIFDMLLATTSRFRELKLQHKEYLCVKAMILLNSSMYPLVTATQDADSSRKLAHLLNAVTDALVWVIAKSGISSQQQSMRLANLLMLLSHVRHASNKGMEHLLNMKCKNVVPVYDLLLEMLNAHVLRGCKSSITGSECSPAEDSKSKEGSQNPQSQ

[3] = test system: MCF-7 cell lines; experiment: MTT antiproliferative assay; format: cell-based, human
[4] = test system: MDA-MB-231 cell lines; experiment: MTT antiproliferative assay; format: cell-based, human; conditions: Homo sapiens, MDA-MB-231; growth inhibition, 48 h; read-out: MDA-MB-231 (IC50 nM)
[5] = test system: Ishikawa endometrial adenocarcinoma cells; experiment: Antiproliferative assay; format: cell-based; conditions: Homo sapiens, growth inhibition
Excerpt: As SERMs profile is often associated with the stimulation of endometrial cell proliferation and an increase in the incidence of endometrial cancer (EC), the herein compounds were therefore evaluated against Ishikawa endometrial adenocarcinoma cells (Table 8, Supplementary Material Figures […]). […] However, future experimental elaboration, currently beyond the authors' experimental facilities, is required to confirm compounds' promising profiles in terms of no EC induction.

[6] = target: T1, ERα; experiment: ERα down-regulation immunofluorescence assay in MCF-7; format: cell-based; conditions: ERα downregulation measured in MCF-7; read-out: MCF-7 DR (IC50 nM)
[7] = test system: progesterone receptor (PR); experiment: ERα functional antagonism cell assay (PR as biomarker) in MCF-7; format: cell-based; conditions: Homo sapiens, MCF7; progesterone receptor as biomarker for ERα antagonism in MCF-7
[8] = test system: MCF-7 cells; experiment: Cell cycle distribution by flow cytometry; format: cell-based, human; conditions: 24 h
[9] = MTT antiproliferative assay (neutral control); conditions: human
[10] = test system: MNU-induced breast cancer; experiment: In vivo anticancer screening, MNU-induced mammary tumorigenesis; parameters: species or system female Wistar rats; conditions: dose 50 mg/kg (compounds per os after MNU; MNU alone i.p.)
[11] = Serum biochemical markers after treatment of MNU-induced rats; format: in vivo, Wistar rats; parameters: TBC: unit not given here; conditions: dose 50 mg/kg
Procedure: (§1) Rats were housed at 3 per cage and
(§2) The breast cancer was induced after the MNU (Sigma Aldrich CAS No. 684-93-5) administration. An aqueous solution at a concentration of 10 mg/ml was made by wetting the NMU powder with 3% acetic acid and then dissolving it in 0.9% NaCl solution; a fresh solution was prepared for each injection. Rats were given intraperitoneal (i.p.) 50 mg/kg of MNU on the 50th day of age. Animals were divided into different groups with six animals in each group. Group I (intact control) received 0.9% NaCl solution.
(§3) Groups II-IV and V-VII were introduced with MNU. Two weeks after MNU treatment, animals were treated orally with synthesized compounds and control substances (5 and 50 mg/kg, for groups II-IV and V-VII, respectively) by gavage once per day for six weeks. Animals in the intact control group and untreated MNU group were given vehicle (Tween 80) according to the experimental protocol. […]
Upon finishing the treatment with synthesized compounds, animals were sacrificed, and plasma, serum, and liver samples were collected.
Measurement of Serum Biochemical Markers
The activities of AST and ALT on 340 nm, and ALP on 405 nm, were determined by UV-Vis kinetic methods according to recommendations of the Expert Panel of the IFCC (International Federation of Clinical Chemistry). The colorimetric methods were used for the determination of total bilirubin (Jendrassik-Grof 550 nm method). All kinetic and colorimetric measurements were recorded using a Perkin-Elmer Lambda 25 UV/Vis spectrophotometer. […]

[12] = Liver oxidative stress markers after treatment of MNU-induced rats; format: in vivo, Wistar rats; conditions: liver, dose 50 mg/kg
Procedure: as §1, §2, §3
Upon finishing the treatment with synthesized compounds, animals were sacrificed, and plasma, serum, and liver samples were collected. […]
Determination of Antioxidant Markers in Liver Homogenate
Rat liver samples were homogenized in phosphate buffer (5 mM, pH = 7.4) to give a 10% (w/v) liver homogenate and then centrifuged at 4000 rpm for 15 min at 4°C. The supernatant of liver homogenate was used for the estimation of reduced glutathione (GSH) and catalase (CAT) levels by the colorimetric method. The contents of malondialdehyde (MDA) in the supernatant of the liver homogenates were determined using 1,1,3,3-tetraethoxypropane as standard. Total protein concentrations were determined according to the method of Lowry using bovine serum albumin as […]

[13] = test system: MNU-induced breast cancer tissue; experiment: Histopathology of breast sections; format: in vivo, Wistar rats; conditions: 50 mg/kg of bwt
Excerpt: The impact of selected leads on BC tissue was registered after their administration to experimental animals with MNU-induced BC (Figure 9 and Supplementary Material Figures S211–S218). […] In contrast to this, the administered leads were harmless in both concentrations, neutralizing the MNU-induced changes, judging by the lobuloalveolar units and cuboidal epithelial cells found (Figure 9C,D, and Supplementary Material Figures S214–S218). […]
Histopathological Studies
histopathological changes. […]

[14] = log of % relative binding affinity, estradiol = 100%
[15] = 1 nM as lower concentration (3DPQ-5, 3DPQ-6, 3DPQ-8)
[16] = MFD 1000 mg/kg (MNU: MTD 100 mg/kg bwt), 5 days

CC(=O)c1cc(C(=O)OC2C=CC(=O)OC(O)CCCC=CC3CC(O)CC32)ccc1OCCN1C(=O)CCC1=O (centres unmarked) [Compound 3DPQ-5, -decahydro-1H-cyclopenta[f][1]oxacyclotridecin-1-yl 3-acetyl-4-(2-(2,5-dioxopyrrolidin-1-yl)ethoxy)benzoate]
Ki ([1]; calculated antagonistic (inhibitory) constant, read-out: Ka ERα): 0.18 nM | IC50 ([1]; concentration that antagonizes 50% of ERα signaling activity, read-out: ERα (IC50 nM)): 0.81 ± 0.43 nM | logRBA ERα [1, 14]: 2.04 ^‡ | ERα potency, fold more potent than 4-OHT ([1]; ratio of IC50 values): 1.38 fold | Ki ([2]; calculated antagonistic (inhibitory) constant, read-out: Ka ERβ): 41.8 nM | IC50 ([2]; concentration that antagonizes 50% of ERβ signaling activity, read-out: ERβ (IC50 nM)): 74.41 ± 0.46 nM | logRBA ERβ [2, 14]: 0.08 ^†,‡,§ | IC50 ([3]; Homo sapiens, MCF7, growth inhibition, 48 h, read-out: MCF-7 (IC50 nM)): 1.02 ± 0.64 nM | SI ([3]; selectivity index [IC50(MDA-MB-231)]/[IC50(MCF-7)]): 51.61 ^‡,§ | IC50 [4]: 52.6 ± 0.69 nM | IC50 [5]: 1.42 ± 0.32 nM | IC50 [6]: > 100 nM | IC50 [7]: > 100 nM | Cell Cycle (%) G0/G1 [8, 15]: 71.78 ± 0.67 *^,†,‡,§ % | Cell Cycle (%) G2/M [8, 15]: 19.01 ± 3.55 *^,†,‡,§ % | Cell Cycle (%) S [8, 15]: 9.21 ± 1.95 *^,†,‡,§ % | Cell Cycle (%) G0/G1 ([8]; 10 nM (3DPQ-5, 3DPQ-6, 3DPQ-8)): 74.24 ± 2.15 *^,†,‡,§ % | Cell Cycle (%) G2/M ([8]; 10 nM (3DPQ-5, 3DPQ-6, 3DPQ-8)): 15.85 ± 4.43 *^,†,‡,§ % | Cell Cycle (%) S ([8]; 10 nM (3DPQ-5, 3DPQ-6, 3DPQ-8)): 9.92 ± 0.76 *^,†,‡,§ % | IC50 at 48 h [9]: > 100 nM

CN(N=O)C(N)=O [MNU, Methyl nitrosourea, reference compound]
Tumor Burden (week) [10]: 4.55 ± 0.15 *^,‡,§,‖,┴ week | Tumor Latency (week) [10]: 5 *^,†,‡,§,‖,┴ week | Tumor Volume (mm^3) [10]: 4.48 ± 0.54 mm^3 | ALP (A/L) ([11]; serum): 232.54±0.32 A/L | ALT (A/L) ([11]; serum): 157.31 A/L | AST (U/L) ([11]; serum): 135.43 U/L | γ-GT (U/L) ([11]; serum): 19.43±0.42 U/L | TBC ([11]; total bilirubin content): 32.34 | CAT ([12]; catalase activity): 3.08±0.68 | TBARS [12]: 3.31 ± 0.72 nmol/mg | SOD (U/mg) ([12]; superoxide dismutase activity): 3.32±0.14 U/mg | TP ([12]; total protein content): 51.32 ± 0.43 g/L | breast section histopathology [13]: mammary gland carcinoma alongside with massive proliferation of neoplastic epithelial cells (EC) | colon section histopathology [16]: induced colon | heart section histopathology [16]: interstitial hydrops | kidney section histopathology [16]: large size neoplastic lymphocytes infiltrated into the interstitial | liver section histopathology [16]: numerous numbers of medium to large size neoplastic lymphocytes | lung section histopathology [16]: alveolar bronchiolar | spleen section histopathology [16]: faded red pulp | WL after MFD (day 1, mg) (average body weight at day 1, dosing at MFD): 305.44 ± 0.62 mg | MFD (5 days) (maximum feasible (or tolerated) dose, 5 days per os, 5-1000 mg/kg bwt): 100 mg/kg
